Measurements from article PMC6332173, “Diterpenoids from Saliva plebeia R. Br. and Their Antioxidant and Anti-Inflammatory Activities” (Molecules, 2015).
One block for each compound: values may come before it.

Key:
[1] = system: NO production in LPS-stimulated RAW 264.7 macrophages; test: NO production in LPS-stimulated RAW 264.7 macrophages (Griess reaction); assay type: cell-based, murine; conditions: Mus musculus, RAW264.7; for inhibition at 3 µM / inhibition at 10 µM / inhibition at 30 µM / inhibition at 100 µM: LPS 1 μg/mL, 24 h, mean ± SD, n=3, read-out: NO Inhibition Rate (%); for IC50: LPS-induced RAW 264.7 macrophages, read-out: IC50 of NO production inhibition
[2] = system: RAW 264.7 macrophages; assay type: cell-based, murine; conditions: mouse, 24 h, 100 µM
Method: The MTT assay was used to evaluate the cell viability, as previously reported. RAW 264.7 macrophages were seeded at a density of 1 × 10^5 cells /mL in 96-well plates and cultured for 24 h with the test compound (100 µM) at 37 °C in a 5% CO2 incubator. Subsequently, 20 μL of MTT solution (5 mg/mL) was added to each well and incubated for 4 h at 37 °C and the resulted crystals were dissolved in DMSO. The optical density was measured at 490 nm using Thermo Scientific Varioskan Flash.

[3] = system: intracellular ROS production in LPS-stimulated RAW 264.7 macrophages; test: Intracellular ROS assay in LPS-stimulated RAW 264.7 macrophages (DCFH-DA); assay type: cell-based, murine; conditions: Mus musculus, RAW264.7, LPS 1 μg/mL, 6 h, mean ± SD, n=3, read-out: Intracellular ROS Inhibition Rate (%)
Method: Intracellular ROS assay: Intracellular ROS assay was performed according to the method reported previously. RAW 264.7, a murine macrophage cell line, was obtained from the Pharmacognosy Laboratory of Prof. Mian Zhang, China Pharmaceutical University. Cells were cultured in DMEM containing 10% fetal bovine serum, 100 U/mL penicillin and 100 U/mL streptomycin at 37 °C in a humidified atmosphere containing 5% CO2 and 95% air. The cells (1 × 10^5 cells/well) were pre-incubated in the 96-well plate for 12 h. Then, cells were cultured in normal medium as normal group, or 1 μg/mL LPS as control group, or 1 μg/mL LPS plus different concentration of compounds as test group. After the cells of each group were treated for 6 h, the medium was removed, and the cells were incubated with 50 μL 2,7-Dichlorofluorescein diacetate (DCFH-DA) (10 μM) for 20 min at 37 °C. After that, the cells were washed with PBS carefully three times to remove free DCFH-DA. The absorbance was determined at 525 nm using Thermo Scientific Varioskan Flash. Apocynin was used as the positive control. The inhibitory rate (%) was calculated according to the equation: Inhibition rate (%) = [1 − (B1 − B0)/(B2 − B0)] × 100 (2) B1 refers to the absorbance of […], B0 refers to the absorbance of normal group.

[4] = DPPH radical scavenging assay; conditions: for DPPH radical scavenging rate: 30 min, absorbance 517 nm
Method: DPPH radical assay: DPPH radical scavenging assay was performed according to previous protocol with modifications. DPPH was dissolved in ethanol at the concentration of 200 µM. One hundred microliters of compounds (5, 10, 20, 30, 50 µM) were added to the 96-well plates, and evaded the light preservation for 30 min after addition 100 µL DPPH. Then the absorbance was measured at 517 nm using Thermo Scientific Varioskan Flash. Vitamin C was used as the positive control. The inhibitory effect was expressed as scavenging rate of alleviation and was calculated as follows: Scavenging rate (%) = [1 − (A1 − A2)/A0] × 100 (1) A1 refers to the absorbance with various concentrations of test compounds and DPPH, A2 refers to the absorbance with various concentrations of test compounds and ethanol, A0 refers to the absorbance with distilled water and DPPH.

Compound: CC(C)c1cc2c(c(O)c1O)[C@@]13CCCC(C)(C)[C@@H]1C[C@@H]2OC3=O [Compound 2, carnosol]
inhibition at 3 µM [1]: 20.5 ± 2.6%
inhibition at 10 µM [1]: 32 ± 4.8%
inhibition at 30 µM [1]: 63.3 ± 5.3%
inhibition at 100 µM [1]: 103 ± 5.9%
IC50 [1]: 21.5 µM
Cell Viability (% vs. Control) [2]: 110.5 ± 0.9%
inhibition at 10 µM [3]: 29.5 ± 3.1%
inhibition at 30 µM [3]: 53.2 ± 2%
inhibition at 100 µM [3]: 80.3 ± 1.3%
IC50 [4]: 28.8 µM
DPPH radical scavenging rate ([4]; 5 µM compound): 5.9 ± 1.6%
DPPH radical scavenging rate ([4]; 10 µM compound): 15.4 ± 2.6%
DPPH radical scavenging rate ([4]; 20 µM compound): 29.5 ± 1.9%
DPPH radical scavenging rate ([4]; 30 µM compound): 59.3 ± 4.2%
DPPH radical scavenging rate ([4]; 50 µM compound): 86.1 ± 3.3%

Compound: CC(C)Cc1ccc(C(C)C(=O)O)cc1 (stereo not drawn) [ibuprofen, reference compound]
inhibition at 30 µM [1]: 32.3 ± 4.2%

Compound: O=C1O[C@H]([C@@H](O)CO)C(O)=C1O [Vit. C, Vitamin C, reference compound]
IC50 [4]: 26.5 µM
DPPH radical scavenging rate ([4]; 5 µM compound): 6.1 ± 4.4%
DPPH radical scavenging rate ([4]; 10 µM compound): 21.6 ± 2.2%
DPPH radical scavenging rate ([4]; 20 µM compound): 43.8 ± 2.6%
DPPH radical scavenging rate ([4]; 30 µM compound): 57.6 ± 5.4%
DPPH radical scavenging rate ([4]; 50 µM compound): 89.1 ± 2.2%

Compound: COc1cc(C(C)=O)ccc1O [Apocynin, reference compound]
inhibition at 100 µM [3]: 92.9 ± 2.6%

Compound: CC(C)c1cc(C=O)c2c(c1O)OC(=O)C1C(C)(C)CCC[C@]21C=O (stereo partly drawn) [Compound 4, saficinolide]
inhibition at 3 µM [1]: 6.3 ± 2.4%
inhibition at 10 µM [1]: 11.9 ± 5.8%
inhibition at 30 µM [1]: 15.8 ± 4.4%
inhibition at 100 µM [1]: 28.7 ± 5.3%
IC50 [1]: > 100 µM
Cell Viability (% vs. Control) [2]: 101.3 ± 5.0%
inhibition at 10 µM [3]: 8.1 ± 3.2%
inhibition at 30 µM [3]: 16.6 ± 4.4%
inhibition at 100 µM [3]: 47.1 ± 6.1%
IC50 [4]: > 50 µM
DPPH radical scavenging rate ([4]; 5 µM compound): 14.5 ± 2.9%
DPPH radical scavenging rate ([4]; 10 µM compound): 15.2 ± 6.0%
DPPH radical scavenging rate ([4]; 20 µM compound): 15.5 ± 1.3%
DPPH radical scavenging rate ([4]; 30 µM compound): 7.0 ± 4.7%
DPPH radical scavenging rate ([4]; 50 µM compound): 13.2 ± 1.5%

Continued, in another order:

melting point: 232 to 233 °C
IC50 [1]: 18 µM
IC50 [4]: 29.6 µM
Compound: CC(C)C1CC2C(CO)(CC(O)C(O)C2(C)C)c2c(O)cc(O)cc21 [Compound 1, 1,2,3,4,4α,9,10,10α-octahydro-(4α-hydroxyymethyl)-1,1-dimethyl-9-(1-methylethyl)-(2S,3S,4αR,9R,10αS)-2,3,5,7-phenanthrenetertrol]
inhibition at 3 µM [1]: 18 ± 3.2%
inhibition at 10 µM [1]: 42.9 ± 2.5%
inhibition at 30 µM [1]: 68.9 ± 5.2%
inhibition at 100 µM [1]: 86.6 ± 4.9%
Cell Viability (% vs. Control) [2]: 97.3 ± 4.2%
inhibition at 10 µM [3]: 24.6 ± 2.4%
inhibition at 30 µM [3]: 56.1 ± 8.2%
inhibition at 100 µM [3]: 64.8 ± 5.2%
DPPH radical scavenging rate ([4]; 5 µM compound): 16.6 ± 3.3%
DPPH radical scavenging rate ([4]; 10 µM compound): 21.0 ± 1.8%
DPPH radical scavenging rate ([4]; 20 µM compound): 39.2 ± 4.1%
DPPH radical scavenging rate ([4]; 30 µM compound): 53.4 ± 8.2%
DPPH radical scavenging rate ([4]; 50 µM compound): 75.4 ± 6.8%

IC50 [1]: 23.6 µM
IC50 [4]: > 50 µM
Compound: CC(C)c1cc(O)c2c(c1O)[C@@H]1CC3C(C)(C)CCC[C@]23C(=O)O1 (stereo partly drawn) [Compound 3, isocarnosol]
inhibition at 3 µM [1]: 18.8 ± 3%
inhibition at 10 µM [1]: 29.9 ± 5%
inhibition at 30 µM [1]: 59.4 ± 4.7%
inhibition at 100 µM [1]: 98.1 ± 6.5%
Cell Viability (% vs. Control) [2]: 106.7 ± 1.5%
inhibition at 10 µM [3]: 13.5 ± 1.1%
inhibition at 30 µM [3]: 16 ± 1.9%
inhibition at 100 µM [3]: 22 ± 1.8%
DPPH radical scavenging rate ([4]; 5 µM compound): 3.4 ± 2.3%
DPPH radical scavenging rate ([4]; 10 µM compound): 11.5 ± 2.4%
DPPH radical scavenging rate ([4]; 20 µM compound): 24.5 ± 1.2%
DPPH radical scavenging rate ([4]; 30 µM compound): 42.6 ± 6.0%
DPPH radical scavenging rate ([4]; 50 µM compound): 49.0 ± 1.1%

IC50 [1]: > 100 µM
IC50 [4]: 20 µM
Compound: CC(C)c1cc2c(c(O)c1O)[C@]13CO[C@H]2C[C@H]1C(C)(C)C[C@H](O)C3 [Compound 5, 2,11,12-trihydroxy-7,20-epoxy-8,11,13-abietatriene]
inhibition at 3 µM [1]: 5.7 ± 3.8%
inhibition at 10 µM [1]: 4.9 ± 7.3%
inhibition at 30 µM [1]: 16.4 ± 5.4%
inhibition at 100 µM [1]: 25.6 ± 4%
Cell Viability (% vs. Control) [2]: 91.6 ± 2.3%
inhibition at 10 µM [3]: 13 ± 3.3%
inhibition at 30 µM [3]: 51.8 ± 2.2%
inhibition at 100 µM [3]: 91.3 ± 9.2%
DPPH radical scavenging rate ([4]; 5 µM compound): 9.2 ± 5.8%
DPPH radical scavenging rate ([4]; 10 µM compound): 23.8 ± 6.6%
DPPH radical scavenging rate ([4]; 20 µM compound): 55.4 ± 2.7%
DPPH radical scavenging rate ([4]; 30 µM compound): 72.6 ± 5.7%
DPPH radical scavenging rate ([4]; 50 µM compound): 89.6 ± 1.3%
